# Laboratory results as given in PMC11660961, “Leucinostatins target Plasmodium mitochondria to block malaria transmission” (Parasites & Vectors, 2024).
# Entries after “also recorded” stand apart in the source; their conditions may differ. *1 amine or outer side, *2 acyl side, *3 side chain or, on linkers, in order; H or OH if unused. Where a SMILES comes first, the peptide text is derived from it. [ ]: non-standard residue; d: D form. The star is where a group is joined. X3 = C[C@@H](CN(C)C(=O)CCCCCNC(=O)CCCC[C@@H]1SC[C@@H]2NC(=O)N[C@@H]21)N*; X2 = C[C@@H](CN(C)C(=O)CCC[n+]1c2cc(N(C)C)ccc2cc2ccc(N(C)C)cc21)N*; X1 = CCC(=O)C[C@H](O)C[C@@H](C)C[C@H](N[*:1])C(=O)[*:2]; Hexenoyl(2E,4S-Me) = CC[C@H](C)/C=C/C(=O)*; Leu(3R-OH) = CC(C)[C@@H](O)[C@H](N)C(=O)O; NH((S)CH(Me)CH2NMe2) = C[C@@H](CN(C)C)N*; Pro(4S-Me) = C[C@@H]1CN[C@H](C(=O)O)C1; NH((S)CH(CH3)CH2NHMe) = CNC[C@H](C)N*; Aib = CC(C)(N)C(=O)O; βAla = NCCC(=O)O
# Legend:
# [1] = Reverse-phase C18 HPLC elution time as measure of hydrophobicity; type: physicochemical; details: chromatographic; semi-prep C18 column (Gemini 5 μm 110A, 250 × 10 mm), gradient 50% methanol to 100% methanol in 50 min, 1 ml per min, A254; approximate time
# Experimental: LA and LB were purified from P. lilacum as described. LA/LB mixture (Sigma) was also purchased from Sigma. LB C-terminus were modified by linking biotin and Atto495. Around 0.4 µmol of LB and 8 µmol of amine-reactive EZ-Link™ NHS-LC-Biotin (Invitrogen; molar ratio: 1:20) were mixed in 2 mL of PBS buffer (pH = 7.2) and reacted for continuous stirring 4 h at room temperature. Then, the reaction sample was analyzed and purified by semi-prep high-performance liquid chromatography (HPLC; Shimadzu) C18 column (Gemini 5 μm 110A, 250 × 10 mm) with gradient elution of 50% methanol to 100% methanol in 50 min. The flow rate was 1 ml per min. The LB-biotin conjugate fraction was dried at room temperature with a rotary vacuum evaporator (Heidolph).
# The reaction of LB with amine-reactive Atto495 NHS ester (Sigma) was conducted in DMSO. Firstly, Atto495 NHS ester (3 mM), LB (1 mM), and triethylamine (100 mM) were mixed in DMSO in a 0.2 mL reaction volume and reacted at room temperature for 4 h with continuous stirring while protected from light. The reaction solution was applied to semi-prep HPLC to obtain the conjugate of LB-Atto495 as described above, and the LB-Atto495 was dried for use.
# The pure LB was reacted with amine-reactive Atto495 NHS ester in DMSO. The reaction solution was applied to semi-prep HPLC. The conjugate of LB-Atto495 was eluded at 29 min (Fig. 2b). […] On the basis of elution times from the HPLC C18 column, the hydrophobicity of four compounds is LB < LA < LB-Atto495 < LB-biotin.
# [2] = Cytotoxicity assay, MTT, HEK293; type: cell-based, human; details: 24 h incubation at 37 °C, three replicates
# Experimental: (§1) Two methods and two types of cells were used to analyze the general cytotoxicity of small molecules. First, MTT (3-(4,5-dimethylthiazol-2-yl)-2,5-diphenyl tetrazolium bromide; Thermo-fisher) and human embryonic kidney 293 (HEK293) were used in cytotoxicity assays. About 20,000 HEK293 cells in 200 µl of culture medium [Dulbecco’s modified eagle medium (DMEM) with high glutamine and 10% fetal bovine serum] were seeded per well in 96-well microplates. About 1 µl of the compounds in DMSO at various dilutions was added into each well to obtain final concentrations of 0, 10, 100, and 1000 ng/mL. Three replicates were conducted for each concentration. Following incubation at 37 °C with 5% CO2 for 24 h, 10 µL of MTT (5 mg/mL in PBS) was added to each well and incubated for 4 h at 37 °C with 5% CO2. All but 25 µL of the medium was removed from the wells, and 100 µL of DMSO was added to each well and incubated at 37 °C for 10 min to dissolve formazan crystals for measurement. Optical density was measured at an absorbance wavelength of 540 nm.
# [3] = tested on: human embryonic kidney 293 (HEK293) cells; assay: Cytotoxicity assay, MTT, HEK293; type: cell-based
# Experimental: as §1
# [4] = tested on: K562 cell line (human immortalized myelogenous leukemia cell); assay: Cell proliferation assay, CCK-8 kit, K562; type: cell-based
# Experimental: Second, the CCK-8 kit (Sigma) and K562 cell line (human immortalized myelogenous leukemia cell) were used to determine the inhibition of a compound against cell proliferation. About 20,000 cells in 200 µl of culture medium (RMPI-1640 with 10% fetal bovine serum) were seeded per well in 96-well microplates, and then a series of dilutions of the compound from 0 to 1000 ng/ml was added to the medium. The cells were maintained at 37 °C and 5% CO2 for 48 h, and then 20 μl of the CCK-8 solution was added to each well of the plate. The plate was incubated for 1 h, and the A450 was measured using a microplate.
# [5] = tested on: O+ human red blood cells; assay: Hemolysis assay; type: cell-based; details: 100 µM, 10% human RBC suspension in PBS pH 7.4, 3 h at 37 °C, A540, triplicate, p > 0.9
# Experimental: About 200 µL of O + human red blood cells were washed three times in PBS (pH 7.4) and then suspended with 1 ml of PBS. Then, 0.3 ml of suspension was diluted with 3 mL of PBS to obtain a 10% suspension. All tested compounds were dissolved in DMSO to prepare a series of dilutions of 1 nM, 10 nM, 100 nM, 1 µM, 10 µM, and 100 µM. The erythrocyte suspension (100 μl per well) was added to a 96-well plate, and the samples were rapidly stirred and incubated at 37 °C with periodic stirring during a 3-h incubation period. The solution was then centrifuged at 2,000 rpm for 5 min. The absorbance of the supernatant was measured at 540 nm using a microplate, and the hemolytic ratio (%) was calculated by comparison with the 100% hemolytic activity caused by distilled water as maximal hemolytic control. The hemolytic % developed by the PBS control was subtracted from all groups. Each experiment was performed in triplicate.
# [6] = tested on: Hela cells; details: read-out: IC50 against Hela cells; cited from earlier work
# Experimental: Leucinostatins have antimicrobial activity against gram-positive bacteria, including Staphylococcus albus, Bacillus subtilis, Sarcina letter, Streptococcus pyrogens, Streptococcus faecalis, and Mycobacterium species, with IC50 values ranging from 2.5 to 100 μM and against some fungal strains with minimal inhibitory concentrations of 10–25 μM [9–11]. In addition, leucinostatins are known as mycotoxins. The IC50 of leucinostatin Α (LA) to MRC-5 (human fetal lung fibroblast cells) is 2 μΜ [12]. […] The IC50 of LA against H ...
# [7] = tested on: mice; design: method as in 2 sources, ref 9 = [9]; PMID 4783199; doi:10.7164/antibiotics.26.157; 9. Arai T Mikami Y Fukushima K Utsumi T Yazawa K A new antibiotic, leucinostatin, derived from Penicillium lilacinum J Antibiot (Tokyo) 1973 26 157 161 10.7164/antibiotics.26.157 4783199 Arai T, Mikam ||| ref 10 (Mikami et al.); details: intraperitoneal injection; cited from earlier work
# [8] = tested on: P. falciparum transmission to mosquitoes; assay: Standard membrane feeding assay (SMFA), malaria transmission-blocking activity; type: in vivo, Plasmodium falciparum (NF54) in Anopheles gambiae (G3); details: same set of cultured parasites and mosquitoes, Fig. 3d
# Experimental: As we described previously, we maintained An. gambiae (G3 strain) at 27 °C with 80% humidity and a 12 h day/night cycle. Larvae were fed fish food for koi, adult mosquitoes were maintained with 10% sugar in water, and female mosquitoes were fed with purchased human blood to lay eggs. Eggs were collected 48 h after blood-feeding with wet filter papers and hatched in pure water.
# P. falciparum (NF54) was cultured in the lab with 4% O + -type red blood cells in a complete Roswell Park Memorial Institute (RPMI) 1640 medium with 10% human AB + serum and 12.5 μg/ml of hypoxanthine in a candle jar at 37 °C. Then, 15-day-old cultured P. falciparum-infected cells were collected through centrifugation (300 g for 3 min), and about 100 μl of pellet were resuspended in 1.5 ml fresh AB + -type serum and mixed with 1.4 ml O + -type red blood cells, containing about 0.2% stage V gametocytes. Each candidate compound was dissolved in dimethylsulfoxide (DMSO) and diluted with DMSO to obtain different concentrations. About 2 μl of candidate solution was mixed with 298 μl of P. falciparum-infected blood prepared above and was used to feed 60–80 3–5-day-old An. gambiae with feeders covered with parafilm at 37 °C for 30 min. […] The midguts were stained with 0.1% mercury dibromofluorescein disodium salt in phosphate-buffered saline (PBS), and the oocysts were counted under a light microscope.
# [9] = tested on: P. falciparum gametocytes; assay: Distribution of LB-Atto495 in live gametocytes by fluorescence microscopy; type: cell-based, Plasmodium falciparum; details: LB-Atto495 (1 µl of 1 mM in 100 µl) incubated 6 h at room temperature, fluorescent microscope
# Experimental: The 15-day-old cultured P. falciparum was collected from a six-well plate. After centrifugation (300 g for 3 min), the cells were washed with 1 ml of PBS three times at room temperature. About 10 μl of cells was suspended in 100 μl of PBS, and 1 μl of LB-Atto495 (1 mM in DMSO) was added and mixed. The cells were incubated at room temperature in the dark for 6 h. The mixture was centrifuged at 300 g for 3 min to collect cells, which were washed three times with 200 μl of PBS. Finally, the cells were deposited on slides to make a blood smear and fixed with methanol. The vector shield antifade mounting medium for fluorescence (VectorLabs, CA) was dropped on the slides. The slides were covered with coverslips and examined under a fluorescent microscope (Nikon Eclipse Ti-S).
smiles,measurement,setting,value
"CCC(=O)C[C@H](O)C[C@@H](C)C[C@H](NC(=O)[C@@H]1C[C@H](C)CN1C(=O)/C=C/[C@@H](C)CC)C(=O)N[C@H](C(=O)NC(C)(C)C(=O)N[C@@H](CC(C)C)C(=O)N[C@@H](CC(C)C)C(=O)NC(C)(C)C(=O)NC(C)(C)C(=O)NCCC(=O)N[C@@H](C)CN(C)C)[C@H](O)C(C)C [LA, leucinostatin A] ({Hexenoyl(2E,4S-Me)}-[Pro(4S-Me)][X1][Leu(3R-OH)][Aib]LL[Aib][Aib][βAla]-{NH((S)CH(Me)CH2NMe2)})",HPLC elution time (hydrophobicity),[1],~28.3 min
same,IC50,[2],89.6 nM
same,"Density of living cells versus 0 control, HEK293","[3]; 10 ng/mL, p > 0.7",no significant difference
same,"Reduction of cell proliferation, HEK293","[3]; 100 nM, 24 h",38%
same,"Density of living cells versus 0 control, K562","[4]; 10 ng/mL, CCK-8, p > 0.6",no significant difference
same,"Reduction of cell proliferation, K562","[4]; 100 nM, CCK-8, 48 h",43.7%
same,Hemolysis of red blood cells,[5],not significantly different
same,Hemolysis of red blood cells,[5]; listed as leucinostatin A,did not lyse erythrocytes
same,IC50,[6],~40 nM
same,LD50,[7],1.6 mg/kg
"CCC(=O)C[C@H](O)C[C@@H](C)C[C@H](NC(=O)[C@@H]1C[C@H](C)CN1C(=O)/C=C/[C@@H](C)CC)C(=O)N[C@H](C(=O)NC(C)(C)C(=O)N[C@@H](CC(C)C)C(=O)N[C@@H](CC(C)C)C(=O)NC(C)(C)C(=O)NC(C)(C)C(=O)NCCC(=O)N[C@@H](C)CNC)[C@H](O)C(C)C [LB, leucinostatin B] ({Hexenoyl(2E,4S-Me)}-[Pro(4S-Me)][X1][Leu(3R-OH)][Aib]LL[Aib][Aib][βAla]-{NH((S)CH(CH3)CH2NHMe)})",Blocking of P. falciparum transmission to mosquitoes at 10 nM,[8],completely blocked
same,HPLC elution time (hydrophobicity),[1],~27.5 min
"CCC(=O)C[C@H](O)C[C@@H](C)C[C@H](NC(=O)[C@@H]1C[C@H](C)CN1C(=O)/C=C/[C@@H](C)CC)C(=O)N[C@H](C(=O)NC(C)(C)C(=O)N[C@@H](CC(C)C)C(=O)N[C@@H](CC(C)C)C(=O)NC(C)(C)C(=O)NC(C)(C)C(=O)NCCC(=O)N[C@@H](C)CN(C)C(=O)CCC[n+]1c2cc(N(C)C)ccc2cc2ccc(N(C)C)cc21)[C@H](O)C(C)C [LB-Atto495] ({Hexenoyl(2E,4S-Me)}-[Pro(4S-Me)][X1][Leu(3R-OH)][Aib]LL[Aib][Aib][βAla]-X2)",HPLC elution time (hydrophobicity),[1],29 min
same,Location in live P. falciparum gametocytes,[9],colocalized with mitochondria; also recorded: binds mitochondria specifically in parasites
"CCC(=O)C[C@H](O)C[C@@H](C)C[C@H](NC(=O)[C@@H]1C[C@H](C)CN1C(=O)/C=C/[C@@H](C)CC)C(=O)N[C@H](C(=O)NC(C)(C)C(=O)N[C@@H](CC(C)C)C(=O)N[C@@H](CC(C)C)C(=O)NC(C)(C)C(=O)NC(C)(C)C(=O)NCCC(=O)N[C@@H](C)CN(C)C(=O)CCCCCNC(=O)CCCC[C@@H]1SC[C@@H]2NC(=O)N[C@@H]21)[C@H](O)C(C)C [LB-biotin] ({Hexenoyl(2E,4S-Me)}-[Pro(4S-Me)][X1][Leu(3R-OH)][Aib]LL[Aib][Aib][βAla]-X3)",Blocking of P. falciparum transmission to mosquitoes at 10 nM,[8],did not inhibit
same,HPLC elution time (hydrophobicity),[1],~31.5 min
O=C(CCCC[C@@H]1SC[C@@H]2NC(=O)N[C@@H]21)NCCCCCC(=O)ON1C(=O)CC(S(=O)(=O)[O-])C1=O.[Na+] (some centres unmarked) [sulfo-NHS-LC-Biotin],HPLC elution time (hydrophobicity),[1],~16.5 min
